Measurements from patent publication US9238656B2, “Imidazo[4,5-b]pyridine derivatives as ALK and JAK modulators for the treatment of proliferative disorders” (priority 2012, dated 2016).
Structures can show the parent of a compound that is named as a salt. Where two headings read alike, the source gives them in different places.

How the values were obtained:
[1] = molecular target: baculovirus-expressed JAK2 kinase (Homo sapiens, UniProt O60674); test: biochemical
Summary of the method: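 Time-resolved fluorescence kinase assay using 15 ng/mL baculovirus-expressed JAK2 on Neutravidin-captured biotinylated 15-mer peptide substrate, reaction 20 min at room temperature. IC50 from percent inhibition versus log concentration, sigmoidal variable-slope fit.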

[2] = molecular target: baculovirus-expressed ALK (Homo sapiens, UniProt Q9UM73); test: ALK kinase inhibition, TRF/ELISA; type: biochemical; details: read-out: ALK Potency
Summary of the method: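 Plates were coated with GST-PLC-γ substrate (10 μg/mL) and the reaction was started with 30 ng/mL ALK, running 15 min at 37° C. Phosphotyrosine was detected by time-resolved fluorescence with Eu-labeled PT66 antibody. IC50s came from variable-slope sigmoidal fits of percent inhibition versus log concentration.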

[3] = 0.2 μM ATP, read-out: JAK2 Potency

Sequence of baculovirus-expressed ALK (Q9UM73 19-1620): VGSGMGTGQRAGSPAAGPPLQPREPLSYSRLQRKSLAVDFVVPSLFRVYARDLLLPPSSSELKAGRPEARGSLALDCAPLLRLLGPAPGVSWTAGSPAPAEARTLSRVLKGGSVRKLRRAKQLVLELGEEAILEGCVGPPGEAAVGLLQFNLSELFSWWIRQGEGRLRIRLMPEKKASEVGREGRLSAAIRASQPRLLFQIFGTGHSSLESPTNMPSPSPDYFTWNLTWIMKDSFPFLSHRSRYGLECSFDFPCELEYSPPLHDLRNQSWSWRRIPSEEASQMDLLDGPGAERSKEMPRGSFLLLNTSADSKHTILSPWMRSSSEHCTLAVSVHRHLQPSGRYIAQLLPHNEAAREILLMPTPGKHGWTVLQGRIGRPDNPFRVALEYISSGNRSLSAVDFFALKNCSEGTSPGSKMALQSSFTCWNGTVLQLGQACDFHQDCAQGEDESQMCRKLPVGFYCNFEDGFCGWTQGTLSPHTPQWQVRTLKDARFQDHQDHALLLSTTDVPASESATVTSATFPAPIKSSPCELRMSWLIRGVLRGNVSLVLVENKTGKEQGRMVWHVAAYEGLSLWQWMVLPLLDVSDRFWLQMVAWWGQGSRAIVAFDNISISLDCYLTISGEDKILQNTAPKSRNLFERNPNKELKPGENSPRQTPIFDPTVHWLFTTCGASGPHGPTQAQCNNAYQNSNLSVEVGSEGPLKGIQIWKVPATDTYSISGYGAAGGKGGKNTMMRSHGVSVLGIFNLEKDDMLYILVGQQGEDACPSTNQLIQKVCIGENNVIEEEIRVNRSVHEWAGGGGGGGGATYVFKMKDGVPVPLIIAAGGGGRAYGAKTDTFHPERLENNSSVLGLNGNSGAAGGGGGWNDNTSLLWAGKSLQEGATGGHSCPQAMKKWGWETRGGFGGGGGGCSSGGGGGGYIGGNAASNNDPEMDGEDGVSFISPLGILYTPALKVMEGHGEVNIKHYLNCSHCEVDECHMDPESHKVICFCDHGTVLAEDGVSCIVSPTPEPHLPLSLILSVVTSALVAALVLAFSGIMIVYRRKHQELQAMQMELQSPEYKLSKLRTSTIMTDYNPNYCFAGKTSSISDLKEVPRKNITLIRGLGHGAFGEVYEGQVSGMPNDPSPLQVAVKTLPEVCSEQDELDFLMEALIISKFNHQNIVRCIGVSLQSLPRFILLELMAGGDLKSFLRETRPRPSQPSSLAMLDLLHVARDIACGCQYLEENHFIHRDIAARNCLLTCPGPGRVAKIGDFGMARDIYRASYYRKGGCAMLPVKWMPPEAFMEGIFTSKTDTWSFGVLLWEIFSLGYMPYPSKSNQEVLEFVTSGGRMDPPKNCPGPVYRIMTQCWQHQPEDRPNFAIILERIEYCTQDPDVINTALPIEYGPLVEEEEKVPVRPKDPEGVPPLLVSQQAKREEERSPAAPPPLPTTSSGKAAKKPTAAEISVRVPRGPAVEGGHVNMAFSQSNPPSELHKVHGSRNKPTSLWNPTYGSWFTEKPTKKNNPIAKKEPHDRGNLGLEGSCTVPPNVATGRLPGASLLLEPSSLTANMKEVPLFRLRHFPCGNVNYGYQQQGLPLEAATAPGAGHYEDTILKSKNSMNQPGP
Sequence of baculovirus-expressed JAK2 kinase (O60674 whole entry): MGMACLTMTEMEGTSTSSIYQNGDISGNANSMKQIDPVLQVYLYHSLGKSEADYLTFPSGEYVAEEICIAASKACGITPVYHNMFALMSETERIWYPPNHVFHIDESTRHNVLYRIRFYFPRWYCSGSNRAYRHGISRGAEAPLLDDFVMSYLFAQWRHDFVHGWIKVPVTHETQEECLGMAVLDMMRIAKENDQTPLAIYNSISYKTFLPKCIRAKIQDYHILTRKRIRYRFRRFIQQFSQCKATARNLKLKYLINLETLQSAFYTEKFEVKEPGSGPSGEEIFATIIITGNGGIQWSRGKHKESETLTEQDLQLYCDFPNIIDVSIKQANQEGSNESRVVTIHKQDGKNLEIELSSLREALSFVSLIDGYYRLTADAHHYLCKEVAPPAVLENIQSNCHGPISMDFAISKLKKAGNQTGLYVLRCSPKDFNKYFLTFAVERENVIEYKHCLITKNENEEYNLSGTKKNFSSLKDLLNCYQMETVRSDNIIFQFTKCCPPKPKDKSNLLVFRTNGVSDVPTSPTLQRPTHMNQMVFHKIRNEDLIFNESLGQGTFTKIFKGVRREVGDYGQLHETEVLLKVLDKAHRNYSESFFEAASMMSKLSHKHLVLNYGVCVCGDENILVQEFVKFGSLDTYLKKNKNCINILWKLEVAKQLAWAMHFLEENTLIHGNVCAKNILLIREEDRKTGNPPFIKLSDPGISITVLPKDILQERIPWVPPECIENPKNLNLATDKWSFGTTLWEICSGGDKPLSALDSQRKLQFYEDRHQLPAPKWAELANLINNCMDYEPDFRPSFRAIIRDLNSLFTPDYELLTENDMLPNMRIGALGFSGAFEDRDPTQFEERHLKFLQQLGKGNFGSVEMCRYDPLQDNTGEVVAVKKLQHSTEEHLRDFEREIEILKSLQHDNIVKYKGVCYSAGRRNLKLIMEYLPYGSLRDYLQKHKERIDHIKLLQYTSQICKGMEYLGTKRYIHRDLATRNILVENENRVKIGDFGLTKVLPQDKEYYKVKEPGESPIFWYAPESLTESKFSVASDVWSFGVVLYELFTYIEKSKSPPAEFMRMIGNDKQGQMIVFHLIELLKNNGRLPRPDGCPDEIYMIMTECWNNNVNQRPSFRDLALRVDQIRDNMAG

| IC50 [1, 3] | IC50 [2] | Compound | IC50 ([1]; JAK2 Potency) |
| --- | --- | --- | --- |
| 100 to 1000 nM | 100 to 1000 nM | COc1cc(N2CCOCC2)ccc1-c1nc2c(NC34CCC(C)(C(=O)C3)C4(C)C)c(Cl)cnc2[nH]1 (centres unmarked) [Compound CC, 4-(6-chloro-2-(2-methoxy-4-morpholinophenyl)-3H-imidazo[4,5-b]pyridin-7-ylamino)-1,7,7-trimethylbicyclo[2.2.1]heptan-2-one] | – |
| < 100 nM | < 100 nM | CN(C)C(=O)[C@@H]1[C@H](Nc2c(Cl)cnc3[nH]c(-c4sc(N5CCOCC5)nc4Cl)nc23)[C@H]2C=C[C@@H]1C2 [Compound CLXII, (1S,2S,3R,4R)-3-[6-Chloro-2-(4-chloro-2-morpholin-4-yl-thiazol-5-yl)-3H-imidazo[4,5-b]pyridin-7-ylamino]-bicyclo[2.2.1]hept-5-ene-2-carboxylic acid dimethylamide] | – |
| > 10000 nM | 1000 to 10000 nM | CN1CCC(c2nc3c(N[C@H]4[C@@H](C(N)=O)[C@@H]5C=C[C@H]4C5)c(Cl)cnc3[nH]2)CC1 [Compound CL, (1S,2S,3R,4R)-3-[6-Chloro-2-(1-methyl-piperidin-4-yl)-3H-imidazo[4,5-b]pyridin-7-ylamino]-bicyclo[2.2.1]hept-5-ene-2-carboxylic acid amide] | – |
| < 100 nM | 100 to 1000 nM | NC(=O)[C@@H]1[C@H](Nc2c(Br)cnc3[nH]c(-c4ccccc4Cl)nc23)[C@H]2C=C[C@@H]1C2 [Compound CXLIX, (1S,2S,3R,4R)-3-[6-Bromo-2-(2-chloro-phenyl)-3H-imidazo[4,5-b]pyridin-7-ylamino]-bicyclo[2.2.1]hept-5-ene-2-carboxylic acid amide] | – |
| < 100 nM | 100 to 1000 nM | NC(=O)[C@@H]1[C@H](Nc2c(Cl)cnc3[nH]c(-c4cncs4)nc23)[C@H]2C=C[C@@H]1C2 [Compound CCVII, (1S,2S,3R,4R)-3-(6-chloro-2-(thiazol-5-yl)-3H-imidazo[4,5-b]pyridin-7-ylamino)bicyclo[2.2.1]hept-5-ene-2-carboxamide] | – |
| < 100 nM | 100 to 1000 nM | N#Cc1cccc(-c2nc3c(N[C@H]4[C@@H](C(N)=O)[C@@H]5C=C[C@H]4C5)c(Cl)cnc3[nH]2)c1 [Compound CXLIV, (1S,2S,3R,4R)-3-[6-Chloro-2-(3-cyano-phenyl)-3H-imidazo[4,5-b]pyridin-7-ylamino]-bicyclo[2.2.1]hept-5-ene-2-carboxylic acid amide] | – |
| < 100 nM | > 10000 nM | Cn1cc(-c2nc3c(N[C@@]45CCC(C)(C(O)C4)C5(C)C)c(Cl)cnc3[nH]2)cn1 (stereo partly drawn) [Compound CCII, (4S)-4-(6-chloro-2-(1-methyl-1H-pyrazol-4-yl)-3H-imidazo[4,5-b]pyridin-7-ylamino)-1,7,7-trimethylbicyclo[2.2.1]heptan-2-ol] | – |
| < 100 nM | 100 to 1000 nM | N#Cc1ccc(-c2nc3c(N[C@H]4[C@@H](C(N)=O)[C@@H]5C=C[C@H]4C5)c(Cl)cnc3[nH]2)cc1 [Compound CXLV, (1S,2S,3R,4R)-3-[6-Chloro-2-(4-cyano-phenyl)-3H-imidazo[4,5-b]pyridin-7-ylamino]-bicyclo[2.2.1]hept-5-ene-2-carboxylic acid amide] | – |
| < 100 nM | < 100 nM | NC(=O)[C@@H]1[C@H](Nc2c(Br)cnc3[nH]c(-c4sc(N5CCOCC5)nc4Cl)nc23)[C@H]2C=C[C@@H]1C2 [Compound CLXI, (1S,2S,3R,4R)-3-[6-Bromo-2-(4-chloro-2-morpholin-4-yl-thiazol-5-yl)-3H-imidazo[4,5-b]pyridin-7-ylamino]-bicyclo[2.2.1]hept-5-ene-2-carboxylic acid amide] | – |
| < 100 nM | < 100 nM | NC(=O)[C@@H]1[C@H](Nc2c(Cl)cnc3[nH]c(-c4ccc(CN5CCOCC5)cc4)nc23)[C@H]2C=C[C@@H]1C2 [Compound III, (1S,2S,3R,4R)-3-[6-Chloro-2-(4-morpholin-4-ylmethyl-phenyl)-3H-imidazo[4,5-b]pyridine-7-ylamino]-bicyclo[2.2.1]hept-5-ene-2-carboxylic acid amide-trifluoroacetate salt] | – |
| 100 to 1000 nM | 100 to 1000 nM | COc1ccc(-c2nc3c(N[C@H]4[C@@H](C(N)=O)[C@@H]5C=C[C@H]4C5)c(Cl)cnc3[nH]2)c(C2CCN(C[C@H](O)CO)CC2)c1 [Compound XXXIII] | – |
| 100 to 1000 nM | < 100 nM | O=C(NC1CC1)[C@@H]1[C@H](Nc2c(Cl)cnc3[nH]c(-c4sc(N5CC[C@@H](O)C5)nc4Cl)nc23)[C@H]2C=C[C@@H]1C2 [Compound CLXXIII, (1S,2S,3R,4R)-3-[6-Chloro-2-[4-chloro-2-((R)-3-hydroxy-pyrrolidin-1-yl)-thiazol-5-yl]-3H-imidazo[4,5-b]pyridin-7-ylamino]-bicyclo[2.2.1]hept-5-ene-2-carboxylic acid cyclopropylamide] | – |
| < 100 nM | 100 to 1000 nM | CN(C)c1cccc(-c2nc3c(N[C@H]4[C@@H](C(N)=O)[C@@H]5C=C[C@H]4C5)c(Cl)cnc3[nH]2)c1 [Compound XII, (1S,2S,3R,4R)-3-[6-Chloro-2-(3-dimethylamino-phenyl)-3H-imidazo[4,5-b]pyridin-7-ylamino]-bicyclo[2.2.1]hept-5-ene-2-carboxylic acid amide] | – |
| < 100 nM | 1000 to 10000 nM | NC(=O)[C@@H]1[C@H](Nc2c(Br)cnc3[nH]c(-c4ccc(C(F)(F)F)nc4)nc23)[C@H]2C=C[C@@H]1C2 [Compound CXXXIX, (1S,2S,3R,4R)-3-[6-Bromo-2-(6-trifluoromethyl-pyridin-3-yl)-3H-imidazo[4,5-b]pyridin-7-ylamino]-bicyclo[2.2.1]hept-5-ene-2-carboxylic acid amide] | – |
| 1000 to 10000 nM | 1000 to 10000 nM | Cc1nn(C)c(N2CCOCC2)c1-c1nc2c(N[C@H]3[C@@H](C(N)=O)[C@@H]4C=C[C@H]3C4)c(Cl)cnc2[nH]1 [Compound CXXII, (1S,2S,3R,4R)-3-[6-Chloro-2-(1,3-dimethyl-5-morpholin-4-yl-1H-pyrazol-4-yl)-3H-imidazo[4,5-b]pyridin-7-ylamino]-bicyclo[2.2.1]hept-5-ene-2-carboxylic acid amide] | – |
| 100 to 1000 nM | 100 to 1000 nM | CC(C)NC(=O)[C@@H]1[C@H](Nc2c(Cl)cnc3[nH]c(-c4cnn(C)c4)nc23)[C@H]2C=C[C@@H]1C2 [Compound CLXXXVII] | – |
| < 100 nM | < 100 nM | CN(C)c1ccc(-c2nc3c(N[C@H]4[C@@H](C(N)=O)[C@@H]5C=C[C@H]4C5)c(Cl)cnc3[nH]2)cc1 [Compound I, (1S,2S,3R,4R)-3-[6-Chloro-2-(4-dimethylamino-phenyl)-3H-imidazo[4,5-b]pyridin-7-ylamino]-bicyclo[2.2.1]hept-5-ene-2-carboxylic acid amide] | – |
| < 100 nM | < 100 nM | CN(C)CCOc1ccc(-c2nc3c(N[C@H]4[C@@H](C(N)=O)[C@@H]5C=C[C@H]4C5)c(Cl)cnc3[nH]2)cc1 [Compound CCXLIX, (1S,2S,3R,4R)-3-(6-chloro-2-(4-(2-(dimethylamino)ethoxy)phenyl)-3H-imidazo[4,5-b]pyridin-7-ylamino)bicyclo[2.2.1]hept-5-ene-2-carboxamide] | – |
| < 100 nM | < 100 nM | COc1cc(C(=O)N2CCOCC2)ccc1-c1nc2c(N[C@H]3[C@@H](C(N)=O)[C@@H]4C=C[C@H]3C4)c(Cl)cnc2[nH]1 [Compound LXIII, (1S,2S,3R,4R)-3-{6-Chloro-2-[2-methoxy-4-(morpholine-4-carbonyl)-phenyl]-3H-imidazo[4,5-b]pyridine-7-ylamino}-bicyclo[2.2.1]hept-5-ene-2-carboxylic acid amide] | – |
| < 100 nM | < 100 nM | CN1CCN(C(=O)COc2cccc(-c3nc4c(N[C@H]5[C@@H](C(N)=O)[C@@H]6C=C[C@H]5C6)c(Cl)cnc4[nH]3)c2)CC1 [Compound CCXLIII, (1S,2S,3R,4R)-3-(6-chloro-2-(3-(2-(4-methylpiperazin-1-yl)-2-oxoethoxy)phenyl)-3H-imidazo[4,5-b]pyridine-7-ylamino)pyridin[2.2.1]hept-5-ene-2-carboxamide] | – |
| 1000 to 10000 nM | 1000 to 10000 nM | CC(C)(C)OC(=O)N1CCC(c2nc3c(N[C@H]4[C@@H](C(N)=O)[C@@H]5C=C[C@H]4C5)c(Cl)cnc3[nH]2)CC1 [Compound CCXV, tert-butyl 4-(7-((1R,2R,3S,4S)-3-carbamoylbicyclo[2.2.1]hept-5-en-2-ylamino)-6-chloro-3H-imidazo[4,5-b]pyridin-2-yl)piperidine-1-carboxylate] | – |
| > 10000 nM | < 100 nM | COc1cc(N2CCOCC2)ccc1-c1nc2c(N[C@@H]3CCCC[C@H]3NS(C)(=O)=O)c(Cl)cnc2[nH]1 [Compound LXXII, N-{(1R,2R)-2-[6-Chloro-2-(2-methoxy-4-morpholin-4-yl-phenyl)-3H-imidazo[4,5-b]pyridine-7-ylamino]-cyclohexyl}-methanesulfonamide] | – |
| < 100 nM | 100 to 1000 nM | COc1ncc(-c2nc3c(N[C@H]4[C@@H](C(N)=O)[C@@H]5C=C[C@H]4C5)c(Cl)cnc3[nH]2)s1 [Compound CCIX, (1S,2S,3R,4R)-3-(6-chloro-2-(2-methoxythiazol-5-yl)-3H-imidazo[4,5-b]pyridin-7-ylamino)bicyclo[2.2.1]hept-5-ene-2-carboxamide] | – |
| 100 to 1000 nM | < 100 nM | COc1cc(CN2CCNCC2)ccc1-c1nc2c(N[C@H]3[C@@H](C(N)=O)[C@@H]4C=C[C@H]3C4)c(Cl)cnc2[nH]1 [Compound XLII, (1S,2S,3R,4R)-3-[6-Chloro-2-(2-methoxy-4-piperazin-1-ylmethyl-phenyl)-3H-imidazo[4,5-b]pyridine-7-ylamino]-bicyclo[2.2.1]hept-5-ene-2-carboxylic acid amide] | – |

| Compound | IC50 [1, 3] | IC50 [2] | IC50 ([1]; JAK2 Potency) |
| --- | --- | --- | --- |
| COc1cc(N2CCOCC2)ccc1-c1nc2c(N3C[C@@H]4C[C@H]3CN4)c(Cl)cnc2[nH]1 [Compound XXXVII, 6-Chloro-7-(1S,4S)-2,5-diaza-bicyclo[2.2.1]hept-2-yl-2-(2-methoxy-4-morpholin-4-yl-phenyl)-3H-imidazo[4,5-b]pyridine hydrochloride] | – | > 10000 nM | 1000 to 10000 nM |
